Test results: the NIST ThermoML archive (doi:10.1016/j.jct.2015.08.022)
Numbers after ± are expanded uncertainties.

Experiments:
[1] = Crystal; DTA
[2] = Molar enthalpy of transition or fusion; conditions: Crystal; DSC

Row | Normal melting temperature [1] [°C] | Molar enthalpy of transition or fusion [2] [kcal/mol] | SMILES
1 | 185.6 ± 0.4 | 5.98 ± 0.167 | Nc1ccc(C(=O)O)cc1 [4-aminobenzoic acid]
2 | 170.4 ± 0.4 | 7.43 ± 0.191 | NNC(=O)c1ccncc1 [isonicotinic acid hydrazide]
3 | 189.4 ± 0.4 | 6.48 ± 0.167 | NC(=O)c1cnccn1 [pyrazinecarboxamide]
